Literature values as cited in patent publication US20090263481A1, “LEVETIRACETAM FORMULATIONS” (priority 2008, published 2009).
Where two headings read alike, the source gives them in different places.

Legend:
[1] = not given; remark: listed apart in the source

In the case of CC[C@@H](C(N)=O)N1CCCC1=O [Levetiracetam, (−)-(S)-α-ethyl-2-oxo-1-pyrrolidine acetamide], the “solubility (descriptive)” value (acetonitrile) is given as “sparingly soluble”, the “solubility (descriptive)” value (chloroform) is given as “freely soluble” and the “solubility (descriptive)” value (ethanol) is given as “soluble”. For the same molecule, the “solubility (descriptive)” value (methanol) was “freely soluble”, the “solubility (descriptive)” value (n-hexane) was “practically insoluble” and the aqueous solubility (water) was 104 g/100 mL. For the same molecule, the “solubility (descriptive)” value (water) was “very soluble”, the “dose range over which pharmacokinetics are linear” value ([1]; in vivo) was 500 to 5000 mg and the “absorption after oral administration (descriptive)” value ([1]; oral administration) was “rapidly and almost completely absorbed”. For the same molecule, the “time of peak plasma concentrations” value ([1]; oral administration to fasted subjects) was “one”, the “decrease of Cmax by food” value ([1]; oral, with food) was 20% and the “time to steady state” value ([1]; twice-daily dosing) was 2 days. For the same molecule, the “bound to plasma proteins” value (plasma proteins) was “less than 10%”.
